Results taken from EP0053029A1, “Non enkephalin-like peptides, their production, compositions containing them, and their medical and veterinary use” (PENINSULA LABORATORIES INCORPORATED, priority 1980, dated 1982).
“And” between values parts separate entries of the source, which are not always exact repeats. Equal values may be shown once. Where a SMILES comes first, the peptide text is derived from it. [ ]: non-standard residue; d: D form. NMeF = CN[C@@H](Cc1ccccc1)C(=O)O; Thz = O=C(O)[C@@H]1CSCN1

Test system: rat
Experiment: rat tail withdrawal assay (hot water, 55°C)
Assay type: in vivo
Conditions: for analgesic activity: general statement, route and dose not stated
Procedure: The acetate salts of formula I described in Examples 1 to 3 were tested for analgesic activity in the rat tail withdrawal assay. […] Latencies of 5 seconds or greater indicate strong analgesic activity and 20 seconds is a maximum response in this test. The peptides were administered intracisternally or intravenously.
The formula I acetate of Example 2 was dissolved in a sufficient sterile, distilled water to give an injection volume of 1 ml/kg of body weight and administered to rats as a bolus i.v. injection at several dosages.

NC(=O)[C@@H]1CSCN1C(=O)[C@H](Cc1ccccc1)NC(=O)[C@@H]1CCCN1C(=O)[C@@H](N)Cc1ccc(O)cc1 [Example 1, L-Tyrosyl-L-Prolyl-L-Phenylalanyl-L-Thiazolidine-4-carboxyl·amide Acetate] (H-YPF[Thz]-NH2)
analgesic activity: high analgesic activity

CN(C(=O)[C@@H]1CCCN1C(=O)[C@@H](N)Cc1ccc(O)cc1)[C@@H](Cc1ccccc1)C(=O)N1CCC[C@@H]1C(N)=O [Example 2, L-Tyrosyl-L-Prolyl-N-Methyl-L-Phenylalanyl-D-Prolinamide-Acetate] (H-YP[NMeF][dP]-NH2)
Latency of Tail Withdrawal (i.v. bolus, 2.5 mg/kg, 5 min. after injection): 2 s | Latency of Tail Withdrawal (i.v. bolus, 5.0 mg/kg, 5 min. after injection): 8.4 ± 3.6 s | Latency of Tail Withdrawal (i.v. bolus, 10.0 mg/kg, 5 min. after injection): 10.2 ± 3.2 s | Latency of Tail Withdrawal (i.v. bolus, 10.0 mg/kg, 15 min. after injection): 11.1 ± 3.1 s | Latency of Tail Withdrawal (i.v. bolus, 10.0 mg/kg, 30 min. after injection): 7.5 ± 2.5 s | Latency of Tail Withdrawal (i.v. bolus, 10.0 mg/kg, 60 min. after injection): 6.4 ± 2.3 s | Latency of Tail Withdrawal (i.v., 2.5 mg/kg, 15 min. after injection): 3.5 s | Latency of Tail Withdrawal (i.v., 2.5 mg/kg, 30 min. after injection): 3.0 s | Latency of Tail Withdrawal (i.v., 2.5 mg/kg, 60 min. after injection): 2.5 s | Latency of Tail Withdrawal (i.v., 5.0 mg/kg, 15 min. after injection): 10.3 ± 3.1 s | Latency of Tail Withdrawal (i.v., 5.0 mg/kg, 30 min. after injection): 9.1 ± 3.4 s | Latency of Tail Withdrawal (i.v., 5.0 mg/kg, 60 min. after injection): 7.8 ± 3.0 s | Comments (i.v., 5.0 mg/kg, observed behaviour): Individual rats showed 20 sec. latencies and morphine-like symptoms

CN(C(=O)[C@@H]1CCCN1C(=O)[C@@H](N)Cc1ccc(O)cc1)[C@@H](Cc1ccccc1)C(=O)N1CCC[C@@H]1CO [Example 3, L-Tyrosyl-L-Prolyl-N-Methyl-L-Phenylalanyl-D-Prolinol· Acetate]
analgesic activity: high analgesic activity

CN(C(=O)[C@@H]1CSCN1C(=O)[C@@H](N)Cc1ccc(O)cc1)[C@@H](Cc1ccccc1)C(=O)N1CCC[C@@H]1C(N)=O [Tyr-Thz-N-Me-Phe-D-Pro-NFi2] (H-Y[Thz][NMeF][dP]-NH2)
analgesic activity: high analgesic activity

CN1CC[C@]23c4c5ccc(O)c4O[C@H]2[C@@H](O)C=C[C@H]3[C@H]1C5 [morphine, reference compound]
Latency of Tail Withdrawal (rat, in vivo, iv, 2.5 mg/kg): 5 s and 6 s and 4.1 s | Comments (rat, in vivo, iv, 5 mg/kg): Catalepsy Rigidity | Latency of Tail Withdrawal (rat, in vivo, iv, 5 mg/kg): 20 s | Latency of Tail Withdrawal (rat, in vivo, iv, 7.5 mg/kg): 20 s
